The nature of this data set: activity coefficient (dimensionless); of the first substance listed, at infinite dilution; xn = mol fraction of the nth substance listed. The following applies: Liquid, Chromatography, x1 = 0.

± gives the expanded uncertainty stated by the source.

For the compound `Cc1ccccc1C` [1,2-dimethylbenzene] + CCCCCCn1cc[n+](C)c1.N#C[B-](C#N)(C#N)C#N, the activity coefficient (318.15 K) is 1.19 ± 0.04; the activity coefficient (328.15 K) stood at 1.22 ± 0.04; the activity coefficient (338.15 K) worked out at 1.24 ± 0.04; the activity coefficient (348.15 K) is 1.26 ± 0.04; the activity coefficient (358.15 K) was found to be 1.28 ± 0.04; the activity coefficient (368.15 K) amounted to 1.31 ± 0.05.
As for `Cc1cccc(C)c1` [1,3-dimethylbenzene] + CCCCCCn1cc[n+](C)c1.N#C[B-](C#N)(C#N)C#N, the activity coefficient is 1.36 ± 0.05 (318.15 K); 1.39 ± 0.05 (328.15 K); 1.42 ± 0.05 (338.15 K); 1.44 ± 0.05 (348.15 K); 1.47 ± 0.06 (358.15 K); 1.5 ± 0.06 (368.15 K).
Take `Cc1ccc(C)cc1` [1,4-dimethylbenzene] + CCCCCCn1cc[n+](C)c1.N#C[B-](C#N)(C#N)C#N: the activity coefficient (318.15 K) was determined as 1.33 ± 0.05; the activity coefficient (328.15 K) worked out at 1.36 ± 0.05; the activity coefficient (338.15 K) worked out at 1.39 ± 0.05; the activity coefficient (348.15 K) was determined as 1.42 ± 0.05; the activity coefficient (358.15 K) stood at 1.44 ± 0.05; the activity coefficient (368.15 K) was found to be 1.47 ± 0.06.
Regarding `C1COCCO1` [1,4-dioxane] + CCCCCCn1cc[n+](C)c1.N#C[B-](C#N)(C#N)C#N, the activity coefficient by setting is: (318.15 K) 0.362 ± 0.035; (328.15 K) 0.381 ± 0.034; (338.15 K) 0.401 ± 0.034; (348.15 K) 0.419 ± 0.034; (358.15 K) 0.435 ± 0.033; (368.15 K) 0.454 ± 0.033.
For `C=CCCCCCCCC` [1-decene] + CCCCCCn1cc[n+](C)c1.N#C[B-](C#N)(C#N)C#N, the activity coefficient is, setting by setting: (318.15 K) 21.5 ± 1; (328.15 K) 20.5 ± 0.9; (338.15 K) 19.3 ± 0.9; (348.15 K) 18.5 ± 0.9; (358.15 K) 17.6 ± 0.8; (368.15 K) 16.9 ± 0.8.
In the case of `C=CCCCCC` [1-heptene] + CCCCCCn1cc[n+](C)c1.N#C[B-](C#N)(C#N)C#N, the activity coefficient (318.15 K) came out at 8.39 ± 0.38; the activity coefficient (328.15 K) was 8.06 ± 0.37; the activity coefficient (338.15 K) worked out at 7.79 ± 0.36; the activity coefficient (348.15 K) was 7.59 ± 0.35; the activity coefficient (358.15 K) came out at 7.37 ± 0.34; the activity coefficient (368.15 K) stood at 7.24 ± 0.33.
On to `C#CCCCCC` [1-heptyne] + CCCCCCn1cc[n+](C)c1.N#C[B-](C#N)(C#N)C#N, for which the activity coefficient (318.15 K) was 2.92 ± 0.13; the activity coefficient (328.15 K) turned out to be 2.93 ± 0.13; the activity coefficient (338.15 K) worked out at 2.94 ± 0.13; the activity coefficient (348.15 K) turned out to be 2.98 ± 0.14; the activity coefficient (358.15 K) was found to be 2.99 ± 0.14; the activity coefficient (368.15 K) came out at 3.02 ± 0.14.
With `C#CCCCC` [1-hexyne] + CCCCCCn1cc[n+](C)c1.N#C[B-](C#N)(C#N)C#N, the activity coefficient turned out to be 2.17 ± 0.1 (318.15 K); 2.19 ± 0.1 (328.15 K); 2.2 ± 0.1 (338.15 K); 2.24 ± 0.1 (348.15 K); 2.26 ± 0.1 (358.15 K); 2.3 ± 0.1 (368.15 K).
As to `CCC[N+](=O)[O-]` [1-nitropropane] + CCCCCCn1cc[n+](C)c1.N#C[B-](C#N)(C#N)C#N, the activity coefficient (328.15 K) came to 0.497 ± 0.033; the activity coefficient (338.15 K) turned out to be 0.503 ± 0.032; the activity coefficient (348.15 K) came out at 0.508 ± 0.032; the activity coefficient (358.15 K) is 0.511 ± 0.032; the activity coefficient (368.15 K) amounted to 0.518 ± 0.032.
Regarding `C#CCCCCCC` [1-octyne] + CCCCCCn1cc[n+](C)c1.N#C[B-](C#N)(C#N)C#N, the activity coefficient is, setting by setting: (318.15 K) 3.99 ± 0.18; (328.15 K) 3.97 ± 0.18; (338.15 K) 3.96 ± 0.18; (348.15 K) 3.98 ± 0.18; (358.15 K) 3.97 ± 0.18; (368.15 K) 3.99 ± 0.18.
For `CC(C)CC(C)(C)C` [2,2,4-trimethylpentane] + CCCCCCn1cc[n+](C)c1.N#C[B-](C#N)(C#N)C#N, the activity coefficient (318.15 K) is 18.8 ± 0.9; the activity coefficient (328.15 K) is 17.6 ± 0.8; the activity coefficient (338.15 K) stood at 16.5 ± 0.8; the activity coefficient (348.15 K) turned out to be 15.7 ± 0.7; the activity coefficient (358.15 K) came out at 15 ± 0.7; the activity coefficient (368.15 K) came to 14.3 ± 0.7.
Turning to `CCC(C)(C)C` [2,2-dimethylbutane] + CCCCCCn1cc[n+](C)c1.N#C[B-](C#N)(C#N)C#N, the activity coefficient (318.15 K) amounted to 10.5 ± 0.5; the activity coefficient (328.15 K) is 9.96 ± 0.46; the activity coefficient (338.15 K) was 9.52 ± 0.44; the activity coefficient (348.15 K) is 9.24 ± 0.42; the activity coefficient (358.15 K) is 8.92 ± 0.41; the activity coefficient (368.15 K) stood at 8.69 ± 0.4.
As to `CCOC(C)(C)C` [2-ethoxy-2-methylpropane] + CCCCCCn1cc[n+](C)c1.N#C[B-](C#N)(C#N)C#N, the activity coefficient is, setting by setting: (318.15 K) 3.51 ± 0.16; (328.15 K) 3.53 ± 0.16; (338.15 K) 3.53 ± 0.16; (348.15 K) 3.58 ± 0.16; (358.15 K) 3.61 ± 0.16; (368.15 K) 3.66 ± 0.17.
`CCC(C)(C)OC` [2-methoxy-2-methylbutane] + CCCCCCn1cc[n+](C)c1.N#C[B-](C#N)(C#N)C#N: the activity coefficient reads like this: (318.15 K) 2.19 ± 0.1; (328.15 K) 2.24 ± 0.1; (338.15 K) 2.27 ± 0.1; (348.15 K) 2.33 ± 0.11; (358.15 K) 2.36 ± 0.11; (368.15 K) 2.42 ± 0.11.
Take `COC(C)(C)C` [2-methoxy-2-methylpropane] + CCCCCCn1cc[n+](C)c1.N#C[B-](C#N)(C#N)C#N: the activity coefficient (318.15 K) was found to be 1.62 ± 0.07; the activity coefficient (328.15 K) amounted to 1.66 ± 0.07; the activity coefficient (338.15 K) came to 1.71 ± 0.07; the activity coefficient (348.15 K) turned out to be 1.76 ± 0.07; the activity coefficient (358.15 K) was 1.81 ± 0.08; the activity coefficient (368.15 K) was determined as 1.87 ± 0.08.
On to `CC(C)CO` [2-methyl-1-propanol] + CCCCCCn1cc[n+](C)c1.N#C[B-](C#N)(C#N)C#N, for which the activity coefficient by setting is: (318.15 K) 1.44 ± 0.05; (328.15 K) 1.31 ± 0.05; (338.15 K) 1.2 ± 0.1; (348.15 K) 1.11 ± 0.03; (358.15 K) 1.04 ± 0.03; (368.15 K) 0.977 ± 0.025.
In the case of `CC(C)(C)O` [2-methylpropan-2-ol] + CCCCCCn1cc[n+](C)c1.N#C[B-](C#N)(C#N)C#N, the activity coefficient runs as follows: (318.15 K) 1.2 ± 0.04; (328.15 K) 1.11 ± 0.03; (338.15 K) 1.04 ± 0.03; (348.15 K) 0.988 ± 0.025; (358.15 K) 0.951 ± 0.026; (368.15 K) 0.914 ± 0.026.
Regarding `CCC(C)CC` [3-methylpentane] + CCCCCCn1cc[n+](C)c1.N#C[B-](C#N)(C#N)C#N, the activity coefficient came to 10.5 ± 0.5 (318.15 K); 9.96 ± 0.46 (328.15 K); 9.5 ± 0.44 (338.15 K); 9.15 ± 0.42 (348.15 K); 8.81 ± 0.4 (358.15 K); 8.6 ± 0.39 (368.15 K).
On to `C=C(C)c1ccccc1` [(1-methylethenyl)benzene] + CCCCCCn1cc[n+](C)c1.N#C[B-](C#N)(C#N)C#N, for which the activity coefficient reads like this: (328.15 K) 1.2 ± 0.04; (338.15 K) 1.26 ± 0.04; (348.15 K) 1.3 ± 0.04; (358.15 K) 1.34 ± 0.05; (368.15 K) 1.38 ± 0.05.
The like results for `CC(=O)O` [acetic acid] + CCCCCCn1cc[n+](C)c1.N#C[B-](C#N)(C#N)C#N were, in that order, 0.285 ± 0.036, 0.298 ± 0.036, 0.311 ± 0.035, 0.323 ± 0.035 and 0.335 ± 0.035.
Consider `CC(C)=O` [acetone] + CCCCCCn1cc[n+](C)c1.N#C[B-](C#N)(C#N)C#N, for which the activity coefficient (318.15 K) stood at 0.335 ± 0.035; the activity coefficient (328.15 K) worked out at 0.344 ± 0.035; the activity coefficient (338.15 K) is 0.354 ± 0.035; the activity coefficient (348.15 K) was 0.363 ± 0.035; the activity coefficient (358.15 K) was determined as 0.372 ± 0.034; the activity coefficient (368.15 K) was 0.381 ± 0.034.
As to `CC#N` [acetonitrile] + CCCCCCn1cc[n+](C)c1.N#C[B-](C#N)(C#N)C#N, the activity coefficient was determined as 0.387 ± 0.034 (318.15 K); 0.391 ± 0.034 (328.15 K); 0.394 ± 0.034 (338.15 K); 0.396 ± 0.034 (348.15 K); 0.398 ± 0.034 (358.15 K); 0.4 ± 0.034 (368.15 K).
Turning to `c1ccccc1` [benzene] + CCCCCCn1cc[n+](C)c1.N#C[B-](C#N)(C#N)C#N, the activity coefficient runs as follows: (318.15 K) 0.733 ± 0.029; (328.15 K) 0.743 ± 0.029; (338.15 K) 0.758 ± 0.029; (348.15 K) 0.773 ± 0.028; (358.15 K) 0.783 ± 0.028; (368.15 K) 0.8 ± 0.028.
Regarding `CCCCO` [butan-1-ol] + CCCCCCn1cc[n+](C)c1.N#C[B-](C#N)(C#N)C#N, the activity coefficient by setting is: (318.15 K) 1.43 ± 0.05; (328.15 K) 1.32 ± 0.05; (338.15 K) 1.22 ± 0.04; (348.15 K) 1.14 ± 0.03; (358.15 K) 1.07 ± 0.03; (368.15 K) 1.01 ± 0.03.
For the compound `CCC(C)O` (centres undefined) [butan-2-ol] + CCCCCCn1cc[n+](C)c1.N#C[B-](C#N)(C#N)C#N, the activity coefficient stood at 1.27 ± 0.04 (318.15 K); 1.17 ± 0.04 (328.15 K); 1.1 ± 0.1 (338.15 K); 1.03 ± 0.03 (348.15 K); 0.977 ± 0.025 (358.15 K); 0.938 ± 0.026 (368.15 K).
For the compound `CCCC=O` [butanal] + CCCCCCn1cc[n+](C)c1.N#C[B-](C#N)(C#N)C#N, the activity coefficient by setting is: (318.15 K) 0.512 ± 0.032; (328.15 K) 0.523 ± 0.032; (338.15 K) 0.539 ± 0.032; (348.15 K) 0.554 ± 0.032; (358.15 K) 0.564 ± 0.032; (368.15 K) 0.579 ± 0.031.
For `C1CCCCCC1` [cycloheptane] + CCCCCCn1cc[n+](C)c1.N#C[B-](C#N)(C#N)C#N, the activity coefficient came to 7.96 ± 0.37 (318.15 K); 7.46 ± 0.34 (328.15 K); 7.07 ± 0.32 (338.15 K); 6.76 ± 0.31 (348.15 K); 6.45 ± 0.3 (358.15 K); 6.21 ± 0.28 (368.15 K).

Values taken from the NIST ThermoML archive (doi:10.1016/j.jct.2011.11.025).
